Experimental data: patent US11643437B2, “Tandem repeat cancer-targeting peptides for molecular conjugation or engineering and uses thereof in cancer theranostics” (Chang Gung Memorial Hospital, priority 2020, dated 2023)
Where no end group is shown, it is not given here.

Columns and labels:
[1] = target: peptide-binding domain of GRP78 (GRP78-PBD, amino acids 421-639) (Homo sapiens, UniProt P11021); experiment: Surface plasmon resonance, GRP78-PBD binding to chip-bound N-terminal biotin-labeled CTPs/TR-CTPs; conditions: N-terminal GGGGS extension, peptide immobilized on streptavidin chip; for Kd: read-out: Dissociation constant KD
Sequence of peptide-binding domain of GRP78 (GRP78-PBD, amino acids 421-639) (P11021 421-639): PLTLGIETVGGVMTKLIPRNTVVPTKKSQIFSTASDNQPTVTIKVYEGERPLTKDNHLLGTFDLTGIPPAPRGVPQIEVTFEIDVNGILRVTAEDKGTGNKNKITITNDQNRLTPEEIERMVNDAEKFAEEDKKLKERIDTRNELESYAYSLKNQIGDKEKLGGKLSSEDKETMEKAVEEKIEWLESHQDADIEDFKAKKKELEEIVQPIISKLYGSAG
Source text: Biotin-labeled TR-CTPs and CTPs were synthesized (Biotools Co., Ltd, Taiwan) to evaluate kinetics of binding to GRP78 by surface plasmon resonance. TR-CTPs and CTPs were extended by five amino acids (GGGGS; SEQ ID NO: 9) at their N-termini. The N-termini were labeled with a single biotin molecule per TR-CTP/CTP through an aminohexanoic acid linkage.
Also biotin labeled were two negative control peptides, in which the L-Leu residues within the sequences of F4P6-TR-CTP and F4P13-TR-CTP were replaced with D-Leu residues (dF4P6 and dF4P13, respectively).
(§1) Streptavidin was immobilized to a sensor chip (CMS; GE Healthcare) having a matrix of carboxymethylated dextran covalently attached to a gold surface using a standard amine-coupling method according to established procedures (GE Healthcare). The biotin-labeled TR-CTPs were immobilized on the chip by flowing them over the chip at a flow rate of 5 μl/min using HBS-P+ (GE Healthcare) as the running buffer.
(§2) Sensor chips were regenerated by washing the chip surface for 30 s with glycine buffer (10 mM; pH 11.5). Chips were reused after two chip regeneration cycles followed by a 120 s wash with running buffer.

[2] = target: T1, GRP78-PBD (Homo sapiens, UniProt P11021); experiment: Surface plasmon resonance, GRP78-PBD binding to chip-bound C-terminal biotin-labeled CTPs/TR-CTPs; conditions: C-terminal GGGGSK extension, biotin on C-terminal lysine; for Kd: read-out: Dissociation constant KD
T1 sequence (P11021 421-639): as above
Procedure: as §1, §2
The P13-series peptides described above in Example 1 were also biotin labeled after extending them at their C-termini with the sequence GGGGSK (SEQ ID NO: 10). Biotin was conjugated to the C-terminal lysine residue using standard techniques. Binding affinities of GRP78-PBD for the sensor chip-bound peptides were determined as described above in Example 2.

[3] = system: TOV21G ovarian cancer target cells; experiment: PBMC-mediated cell killing, xCELLigence RTCA, TOV21G; type: cell-based; conditions: 12.5 nM antibody, effector-to-target ratio 10:1, 40 h incubation
Procedure: (§3) The ability of bispecific antibody-like construct F4P6-BsAb to induce cell killing by peripheral blood mononuclear cells (PBMC) was tested on TOV21G ovarian cancer target cells and N87 gastric cancer target cells.
(§4) Target cells were seeded at 2×10^4 cells per well of a 96-well electronic microtiter plate (“E-plate”; ACEA Biosciences, Inc.) and allowed to adhere for 2 h. PBMC effector cells, PBMC effector cells plus F4P6-BsAb, and PBMC effector cells plus Ctrl-BsAb that lacks the […] sequence were added to reach a final effector-to-target ratio of 10:1. The concentration of F4P6-BsAb and Ctrl-BsAb was 12.5 nM. Data was gathered and quantified using an xCELLigence Real-Time Cell Analysis system (“RTCA”; ACEA Biosciences, Inc.) as directed by the manufacturer.

[4] = system: N87 gastric cancer target cells; experiment: PBMC-mediated cell killing, xCELLigence RTCA, N87; type: cell-based; conditions: 12.5 nM antibody, effector-to-target ratio 10:1, 90 h incubation
Procedure: as §3, §4

[5] = target: T1, GRP78-PBD; experiment: Surface plasmon resonance, GRP78-PBD binding to F4P6-BsAb amine-coupled to sensor chip; conditions: F4P6-BsAb directly coupled to sensor chip by amine-coupling
Procedure: as §1, §2
Following expression and purification of F4P6-BsAb, the kinetics of GRP78-PDB binding to it was evaluated by surface plasmon resonance as described in Example 1 above, differing in that the F4P6-BsAb was directly coupled to the CMS sensor chip by amine-coupling.

RPFLFPFLFYRPFLFPFLFY [F5P13-TR-CTP]
Association rate Kon [1]: 1.9 × 10^3 M^−1S^−1
Dissociation rate Koff [1]: 1.2×10^−3 S^−1
Kd [1]: 610 nM

RPFLPFLPYRPFLPFLPY [F5P6-TR-CTP]
Association rate Kon [1]: 8.9 × 10^2 M^−1S^−1
Dissociation rate Koff [1]: 9.1×10^−4 S^−1
Kd [1]: 1000 nM

RLLDTNRPFLPY [P6-CTP, reference compound]
Association rate Kon [1]: 1.5 × 10^3 M^−1S^−1
Dissociation rate Koff [1]: 3.0×10^−3 S^−1
Kd [1]: 1900 nM

RLLDTNRPFLFY [P13-CTP, reference compound]
Association rate Kon [2]: 9.7 × 10^2 M^−1S^−1
Dissociation rate Koff [2]: 2.0 × 10^−3 S^−1
Kd [2]: 2700 nM
Association rate Kon [1]: 1.2 × 10^3 M^−1S^−1
Dissociation rate Koff [1]: 3.4×10^−3 S^−1

RPFLFPFLFY [F4P13-TR-CTP]
Association rate Kon [2]: 1.8 × 10^3 M^−1S^−1
Dissociation rate Koff [2]: 1.2 × 10^−3 S^−1
Kd [2]: 660 nM
Association rate Kon [1]: 7.9 × 10^2 M^−1S^−1
Dissociation rate Koff [1]: 1.7×10^−3 S^−1
Kd [1]: 2100 nM

RPFLPFLPY [F4P6-TR-CTP]
Association rate Kon [1]: 2.3 × 10^3 M^−1S^−1
Dissociation rate Koff [1]: 2.8×10^−3 S^−1
Kd [1]: 1200 nM

B1: F4P6-BsAb: bispecific antibody-like knob-and-hole heterodimer, anti-CD3 scFv plus F4P6-TR-CTP on both Fc C-termini, SEQ ID NO 12 and 14 (protein)
chain 1: MGGRRVRWEVYISRAGYVNRQIAWRRHHRSATMGWSLILLFLVAVATRVLSQVQLVQSGAEVKKPGASVKVSCKASGYTFTRYTMHWVRQAPGQGLEWIGYINPSRGYTNYNQKFKDKATLTTDKSISTAYMELSRLRSDDTAVYYCARYYDDHYTLDYWGQGTLVTVSSGGGGSGGGGSGGGGSEIVLTQSPATLSLSPGERATLSCSASSSVSYMNWYQQKPGQAPRRWIYDTSKLASGIPARFSGSGSGTSYTLTISSLEPEDFAVYYCQQWSSNPFTFGQGTKVEIKRSGGGGSGGGGSGGGGSTGTHTCPPCPAPELAGAPSVFLFPPKPKDTLMISRTPEVTCVVVDVSHEDPEVKFNWYVDGVEVHNAKTKPREEQYNSTYRVVSVLTVLHQDWLNGKEYKCKVSNKALPAPIEKTISKAKGQPREPQVCTLPPSREEMTKNQVSLSCAVKGFYPSDIAVEWESNGQPENNYKTTPPVLDSDGSFFLVSKLTVDKSRWQQGNVFSCSVMHEALHNHYTQKSLSLSPGKGGGGSGGGGSGGGGSRPFLPFLPY
chain 2: MGGRRVRWEVYISRAGYVNRQIAWRRHHRSATMGWSLILLFLVAVATRVLSTGTHTCPPCPAPELAGAPSVFLFPPKPKDTLMISRTPEVTCVVVDVSHEDPEVKFNWYVDGVEVHNAKTKPREEQYNSTYRVVSVLTVLHQDWLNGKEYKCKVSNKALPAPIEKTISKAKGQPREPQVYTLPPCREEMTKNQVSLWCLVKGFYPSDIAVEWESNGQPENNYKTTPPVLDSDGSFFLYSKLTVDKSRWQQGNVFSCSVMHEALHNHYTQKSLSLSPGKGGGGSGGGGSGGGGSRPFLPFLPY
PBMC mediated lysis of TOV21G cells [3]: 22%
PBMC mediated lysis of N87 cells [4]: 15%
Kd [5]: 1100 nM
Koff value [5]: 9.4×10^−4 S^−1
